Results from patent publication US7842695B2, “Substituted pyrazole compounds” (Merck Patent GmbH, priority 2003, dated 2010).

Target: 5-HT2A receptors (UniProt P14842)
Test: in-vitro affinity to 5-HT2A receptors, [3H]ketanserine displacement (Example A1)
Format: binding
Source text: The 5-HT2A receptors are exposed both to [^3H]ketanserine (a substance known for its affinity to the receptor) and also to the test compound. The decrease in the affinity of [^3H]ketanserine to the receptor is an indication of the affinity of the test substance to the 5-HT2A receptor.

`Fc1ccc(CCN2CCC(NCc3cnn(-c4ccc(-c5ccc(F)cc5)cc4)c3-c3ccco3)C2)cc1` (stereo not shown) [Example 581, [1-(4′-Fluorobiphenyl-4-yl)-5-furan-2-yl-1H-pyrazol-4-ylmethyl]-{1-[2-(4-fluorophenyl)ethyl]pyrrolidin-3-yl}amine] and “{[1-(4′-Fluorobiphenyl-4-yl)-5-furan-2-yl-1H-pyrazol-4-ylmethyl]methylamino}phenylpropan-1-ol [Example 587]” are within 1.5-fold of each other in IC50: 17 nM for the first, 19 nM for the second.

First: CCN(CC)Cc1cnn(-c2ccc(-c3ccc(F)cc3)cc2)c1-c1cccc(Cl)c1 [Example 682, [5-(3-Chlorophenyl)-1-(4′-fluorobiphenyl-4-yl)-1H-pyrazol-4-ylmethyl]diethylamine]
Second: COc1ccc(-c2ccc(-n3ncc(CN)c3-c3ccco3)cc2)cc1 [Example 584, C-[5-Furan-2-yl-1-(4′-methoxybiphenyl-4-yl)-1H-pyrazol-4-yl]methylamine]
The IC50 of the first is 11-fold higher: 190 nM for the first, 18 nM for the second. The second is the more potent here.

`OC1CCN(Cc2cnn(-c3ccc(-c4ccc(F)cc4)cc3)c2-c2ccoc2)C1` (stereo not shown) [Example 670, 1-[1-(4′-Fluorobiphenyl-4-yl)-5-furan-3-yl-1H-pyrazol-4-ylmethyl]pyrrolidin-3-ol] and `CCN1CCN(Cc2cnn(-c3ccc(-c4ccc(F)cc4)cc3)c2-c2c(C)noc2C)CC1` [Example 672, 1-[5-(3,5-Dimethylisoxazol-4-yl)-1-(4′-fluorobiphenyl-4-yl)-1H-pyrazol-4-ylmethyl]-4-ethylpiperazine] are within 1.5-fold of each other in IC50: 96 nM for the first, 100 nM for the second.

`COc1cccc(-c2c(CN3CCC(O)C3)cnn2-c2ccc(-c3ccc(F)cc3)cc2)c1` (stereo not shown) [Example 598, 1-[1-(4′-Fluorobiphenyl-4-yl)-5-(3-methoxyphenyl)-1H-pyrazol-4-ylmethyl]pyrrolidin-3-ol] and `Fc1ccc(-c2ccc(-n3ncc(CNC4CC4)c3-c3ccco3)cc2)cc1` [Example 582] are within 1.5-fold of each other in IC50: 24 nM for the first, 17 nM for the second.

Compared with `Cc1noc(C)c1-c1c(CN2CCN(C)CC2)cnn1-c1ccc(-c2ccc(F)cc2)cc1` [Example 696, 1-[5-(3,5-Dimethylisoxazol-4-yl)-1-(4′-fluorobiphenyl-4-yl)-1H-pyrazol-4-ylmethyl]-4-methylpiperazine], `CN1CCN(Cc2cnn(-c3ccc(-c4ccccc4F)cc3)c2-c2ccco2)CC1` [Example 599, 1-[1-(2′-Fluorobiphenyl-4-yl)-5-furan-2-yl-1H-pyrazol-4-ylmethyl]-4-methylpiperazine] is 13-fold lower in IC50: 320 nM for the first, 25 nM for the second. The second is the more potent here.

Going from `COc1ccc(-c2ccc(-n3ncc(CNCc4ccccn4)c3-c3ccco3)cc2)cc1` [Example 641, [5-Furan-2-yl-1-(4′-methoxybiphenyl-4-yl)-1H-pyrazol-4-ylmethyl]pyridin-2-ylmethylamine] to `NC1CCN(Cc2cnn(-c3ccc(-c4cccc(F)c4)cc3)c2-c2ccco2)CC1` [Example 673, 1-[1-(3′-Fluorobiphenyl-4-yl)-5-furan-2-yl-1H-pyrazol-4-ylmethyl]piperidin-4-ylamine], the IC50 rises from 46 nM to 120 nM (2.6-fold). The first is the more potent here.

Compared with `CC#Cc1ccc(-c2ccc(-n3ncc(CN4CCN(C)CC4)c3-c3ccccc3F)cc2)c(F)c1` [Example 667, 1-[5-(2-Fluorophenyl)-1-(2′-fluoro-4′-prop-1-ynylbiphenyl-4-yl)-1H-pyrazol-4-ylmethyl]-4-methylpiperazine], `Fc1ccccc1-c1c(CN2CCN(Cc3ccccc3)CC2)cnn1-c1ccc(-c2ccccc2)cc1` [Example 679, 1-Benzyl-4-[1-biphenyl-4-yl-5-(2-fluorophenyl)-1H-pyrazol-4-ylmethyl]piperazine] is 1.8-fold higher in IC50: 93 nM for the first, 170 nM for the second.

`CC1CCCN1Cc1cnn(-c2ccc(-c3ccc4c(c3)OCCO4)cc2)c1-c1ccco1` (stereo not shown) [Example 594, 1-[4-(2,3-Dihydrobenzo-1,4-dioxin-6-yl)phenyl]-5-furan-2-yl-4-(2-methylpyrrolidin-1-ylmethyl)-1H-pyrazole] and `CN1CCN(c2cnn(-c3ccc(-c4cccc(F)c4)cc3)c2-c2ccccc2)CC1` [Example 578, 1-[1-(3′-Fluorobiphenyl-4-yl)-5-phenyl-1H-pyrazol-4-yl]-4-methylpiperazine] are within 1.5-fold of each other in IC50: 21 nM for the first, 16 nM for the second.

Going from `O=C1CN(Cc2cnn(-c3ccc(-c4ccc5c(c4)OCO5)cc3)c2-c2ccco2)CCN1` [Example 612, 4-[1-(4-Benzo-1,3-dioxol-5-ylphenyl)-5-furan-2-yl-1H-pyrazol-4-ylmethyl]piperazin-2-one] to `CN1CCC(N(C)Cc2cnn(-c3ccc(-c4ccc(F)cc4)cc3)c2-c2ccco2)C1` (stereo not shown) [Example 575, [1-(4′-Fluorobiphenyl-4-yl)-5-furan-2-yl-1H-pyrazol-4-ylmethyl]methyl-(1-methyl-3-pyrrolidinyl)amine], the IC50 falls from 31 nM to 14.7 nM (2.1-fold).

Going from `Fc1ccc(-c2ccc(-n3ncc(CNC4CN5CCC4CC5)c3-c3ccco3)cc2)cc1` (stereo not shown) [Example 681, (1-Azabicyclo[2.2.2]oct-3-yl)-[1-(4′-fluorobiphenyl-4-yl)-5-furan-2-yl-1H-pyrazol-4-ylmethyl]amine] to `Fc1ccc(-c2ccc(-n3ncc(CN4CCN(CCN5CCCCC5)CC4)c3-c3cccc(Cl)c3)cc2)cc1` [Example 702, 1-[5-(3-Chlorophenyl)-1-(4′-fluorobiphenyl-4-yl)-1H-pyrazol-4-ylmethyl]-4-(2-piperidin-1-ylethyl)piperazine], the IC50 rises from 180 nM to 470 nM (2.6-fold). The first is the more potent here.

Compared with `O=C1CN(Cc2cnn(-c3ccc(-c4cccc(F)c4)cc3)c2-c2ccco2)CCN1` [Example 645, 4-[1-(3′-Fluorobiphenyl-4-yl)-5-furan-2-yl-1H-pyrazol-4-ylmethyl]piperazin-2-one], `CCN(CC)CCCNCc1cnn(-c2ccc(-c3ccc(F)cc3)cc2)c1-c1ccco1` [Example 609, N,N-Diethyl-N′-[1-(4′-fluorobiphenyl-4-yl)-5-furan-2-yl-1H-pyrazol-4-ylmethyl]propane-1,3-diamine] is 1.7-fold lower in IC50: 49 nM for the first, 29 nM for the second.

`CC(C)(C)OC(=O)NC1CCN(Cc2cnn(-c3ccc(-c4cccc(F)c4)cc3)c2-c2ccco2)CC1` [Example 608, tert-Butyl {1-[1-(3′-fluorobiphenyl-4-yl)-5-furan-2-yl-1H-pyrazol-4-ylmethyl]piperidin-4-yl}carbamate] and `CC1CCCN1Cc1cnn(-c2ccc(-c3cccc(F)c3)cc2)c1-c1ccco1` (stereo not shown) [Example 620, 1-(3′-Fluorobiphenyl-4-yl)-5-furan-2-yl-4-(2-methylpyrrolidin-1-ylmethyl)-1H-pyrazole] are within 1.5-fold of each other in IC50: 29 nM for the first, 34 nM for the second.

Going from `CC(=O)N(CCN1CCCCC1)Cc1cnn(-c2ccc(-c3ccc(F)cc3)cc2)c1-c1ccco1` [Example 699, N-[1-(4′-Fluorobiphenyl-4-yl)-5-furan-2-yl-1H-pyrazol-4-ylmethyl]-N-(2-piperidin-1-ylethyl)acetamide] to `CCCN1CCN(Cc2cnn(-c3ccc(-c4ccc(F)cc4)cc3)c2-c2ccoc2)CC1` [Example 657, 1-[1-(4′-Fluorobiphenyl-4-yl)-5-furan-3-yl-1H-pyrazol-4-ylmethyl]-4-propylpiperazine], the IC50 falls from 430 nM to 73 nM (5.9-fold). The second is the more potent here.

Compared with `COc1ccc(-c2ccc(-n3ncc(CNCc4cc5ccccc5n4C)c3-c3ccco3)cc2)cc1` [Example 695, [5-Furan-2-yl-1-(4′-methoxybiphenyl-4-yl)-1H-pyrazol-4-ylmethyl]-(1-methyl-1H-indol-2-ylmethyl)amine], `Fc1ccc(-c2ccc(-n3ncc(CN4CCN(C5CCCC5)CC4)c3-c3cccc(Cl)c3)cc2)cc1` [Example 686, 1-[5-(3-Chlorophenyl)-1-(4′-fluorobiphenyl-4-yl)-1H-pyrazol-4-ylmethyl]-4-cyclopentylpiperazine] is 1.5-fold lower in IC50: 300 nM for the first, 200 nM for the second.
